According to publication PMC5087659, “The role of ADP-ribosylation in regulating DNA interstrand crosslink repair” (Journal of Cell Science, 2016):

Target: T1, O. sativa APL (Q10MW4) macrodomain (Oryza sativa, UniProt B8ALM5)
T1 construct: gene OsI_11122
Test: X-ray crystal structure of the complex (co-crystallisation)
Details: 2 mM ADPr added to protein; crystals in 0.1 M SPG buffer pH 4, 25% PEG 1500, 20 °C; macrodomain binding pocket

T1 sequence (B8ALM5 entry or part of it, one chain of several): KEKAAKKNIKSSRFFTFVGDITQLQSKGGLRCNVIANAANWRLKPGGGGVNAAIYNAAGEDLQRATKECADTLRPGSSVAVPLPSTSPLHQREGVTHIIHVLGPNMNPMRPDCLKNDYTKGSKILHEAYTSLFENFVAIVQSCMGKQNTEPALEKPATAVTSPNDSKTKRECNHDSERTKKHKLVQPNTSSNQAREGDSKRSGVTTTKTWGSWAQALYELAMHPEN

For Nc1ncnc2c1ncn2[C@@H]1O[C@H](COP(=O)(O)OP(=O)(O)OC[C@H]2OC(O)[C@H](O)[C@@H]2O)[C@@H](O)[C@H]1O (stereo partly shown) [ADP-ribose], the “X-ray crystal structure of the complex (co-crystallisation)” value was “We were able to obtain the O. sativa macrodomain in a complex with ADP-ribose”.
